Test results: ChEMBL document CHEMBL6103618, “Discovery of Novel Oxazolo[4,3-f]purine Derivatives as Antitumor Agents through PPIA Interaction” (J Med Chem, 2025)

Experiments:
[1] = Toxicity in BALB/c mouse implanted with mouse CT26 cells assessed as histopathological change in liver at 45 mg/kg, ip qd treated for 14 days by H and E staining based analysis; assay type: organism-based; details: in vivo, 336 h, time 14 day
[2] = Toxicity in BALB/c mouse implanted with mouse CT26 cells assessed as histopathological change in lung at 45 mg/kg, ip qd treated for 14 days by H and E staining based analysis; assay type: organism-based; details: in vivo, 336 h, time 14 day
HeLa = assay: Antiproliferative activity against human HeLa cells assessed as inhibition of cell viability incubated for 48 hrs by CCK8 assay; assay type: functional, cell-based
SW480 = assay: Antiproliferative activity against human SW480 cells assessed as inhibition of cell viability incubated for 48 hrs by CCK8 assay; assay type: functional, cell-based; details: SW480, 48 h
[3] = Toxicity in BALB/c mouse implanted with mouse CT26 cells assessed as histopathological change in kidney at 45 mg/kg, ip qd treated for 14 days by H and E staining based analysis; assay type: organism-based; details: in vivo, 336 h, time 14 day
HepG2 = assay: Antiproliferative activity against human HepG2 cells assessed as inhibition of cell viability incubated for 48 hrs by CCK8 assay; assay type: functional, cell-based; details: HepG2, 48 h
PANC-1 = assay: Antiproliferative activity against human PANC-1 cells assessed as inhibition of cell viability incubated for 48 hrs by CCK8 assay; assay type: functional, cell-based; details: PANC-1, 48 h
[4] = Toxicity in BALB/c mouse implanted with mouse CT26 cells assessed as change in body weight at 45 mg/kg, ip qd treated for 14 days; assay type: organism-based; details: in vivo, 336 h, time 14 day
[5] = Toxicity in BALB/c mouse implanted with mouse CT26 cells assessed as histopathological change in spleen at 45 mg/kg, ip qd treated for 14 days by H and E staining based analysis; assay type: organism-based; details: in vivo, 336 h, time 14 day
CT26 = assay: Antiproliferative activity against mouse CT26 cells assessed as inhibition of cell viability incubated for 48 hrs by CCK8 assay; assay type: functional, cell-based; details: CT26, 48 h
[6] = Toxicity in BALB/c mouse implanted with mouse CT26 cells assessed as histopathological change in heart at 45 mg/kg, ip qd treated for 14 days by H and E staining based analysis; assay type: organism-based; details: in vivo, 336 h, time 14 day
MCF7 = assay: Antiproliferative activity against human MCF7 cells assessed as inhibition of cell viability incubated for 48 hrs by CCK8 assay; assay type: functional, cell-based; details: MCF7, 48 h
HCT-116 = assay: Antiproliferative activity against human HCT-116 cells assessed as inhibition of cell viability incubated for 48 hrs by CCK8 assay; assay type: functional, cell-based; details: HCT-116, 48 h
[7] = target: T1, Peptidyl-prolyl cis-trans isomerase A (Homo sapiens, UniProt P62937); assay: Binding affinity to PPIA (unknown origin) assessed as dissociation constant
[8] = target: T1, Peptidyl-prolyl cis-trans isomerase A; assay: Inhibition of PPIA (unknown origin) using N-succinyl-Ala-Ala-Pro-Phe-p-nitroanilide as substrate preincubated for 1 hr followed by substrate addition measured for 6 mins by absorbance based assay
[9] = target: T1, Peptidyl-prolyl cis-trans isomerase A; assay: Inhibition of PPIA (unknown origin)

T1 sequence (P62937 whole entry): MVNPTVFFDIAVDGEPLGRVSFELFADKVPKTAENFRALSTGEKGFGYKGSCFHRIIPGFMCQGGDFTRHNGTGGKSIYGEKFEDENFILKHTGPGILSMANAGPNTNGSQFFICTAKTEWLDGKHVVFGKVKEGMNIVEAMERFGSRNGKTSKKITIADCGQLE

Row | SMILES | IC50 (HeLa) [µM] | IC50 (SW480) [µM] | IC50 (HepG2) [µM] | IC50 (PANC-1) [µM] | IC50 (CT26) [µM] | IC50 (MCF7) [µM] | IC50 (HCT-116) [µM] | further results
1 | O=c1[nH]cc(F)c(=O)[nH]1 [FLUOROURACIL] | 4.48 | 14.2 | 21.9 | 14.7 | 3.35 |  |  | Activity [1]: Non-toxic; Activity [2]: Non-toxic; Activity [3]: Non-toxic; Activity [4]: Toxic; Activity [5]: Non-toxic; Activity [6]: Non-toxic
2 | C=C(C(=O)OC)N1c2nc(Cl)nc(Cl)c2N2C(c3ccccc3Cl)OC(C(=O)OCC)(C(=O)OCC)C12 (racemic) | 0.89 | 5.43 | 3.25 | 4.46 | 1.12 | 1.9 | 0.67 | 
3 | C=C(C(=O)OC)N1c2nc(Cl)nc(Cl)c2N2C(c3ccccc3Br)OC(C(=O)OCC)(C(=O)OCC)C12 (racemic) | 2.15 | 6.99 | 4.87 | 4.61 | 2.5 | 3.49 | 3.11 | 
4 | C/C=C/C[C@@H](C)[C@@H](O)[C@H]1C(=O)N[C@@H](CC)C(=O)N(C)[C@H](C)C(=O)N(CC)[C@@H](C(C)C)C(=O)N[C@@H](C(C)C)C(=O)N(C)[C@@H](CC(C)C)C(=O)N[C@@H](C)C(=O)N[C@H](C)C(=O)N(C)[C@@H](CC(C)C)C(=O)N(C)[C@@H](CC(C)C)C(=O)N(C)[C@@H](C(C)C)C(=O)N1C [ALISPORIVIR] |  |  |  |  |  |  |  | Kd [7]: 0.008 µM
5 | CC[C@H]1C[C@H](C)[C@@]2(NC1=O)O[C@@H](C[C@H](O)[C@@H](C)CC/C=C/C=C(\C)[C@@H]1C/C=C/C=C/[C@H](O)[C@H](C)[C@@H](O)[C@@H](CCC(C)=O)C(=O)N[C@@H](C(C)C)C(=O)N[C@@H](Cc3cc(O)cc(F)c3)C(=O)N3CCC[C@H](N3)C(=O)O1)[C@H](C)[C@H](O)[C@@H]2C |  |  |  |  |  |  |  | IC50 [8]: 0.00049 µM
6 | C.CC[C@@H]1NC(=O)[C@H]([C@H](O)[C@H](C)CCCCCCNC(C)=O)N(C)C(=O)[C@H](C(C)C)N(C)C(=O)[C@H](CC(C)C)N(C)C(=O)[C@H](CC(C)C)N(C)C(=O)[C@@H](C)NC(=O)[C@H](C)NC(=O)[C@H](CC(C)C)N(C)C(=O)[C@H](C(C)C)NC(=O)[C@H](CC(C)C)N(C)C(=O)[C@@H](C)N(C)C1=O |  |  |  |  |  |  |  | Ki [9]: 0.0025 µM
